Measured values taken from ChEMBL document CHEMBL6153025, “Multidrug-resistant bacteria quorum-sensing inhibitors: A particular focus on Pseudomonasaeruginosa” (Eur J Med Chem, 2025).
Blank lines part the entries; values can stand above or below the molecule they belong to.

Assays:
[1] = molecular target: T1, Transcriptional activator protein LasR (Pseudomonas aeruginosa (strain ATCC 15692 / PAO1 / 1C / PRS 101 / LMG12228)) (UniProt P25084); assay: Inhibition of LasR-mediated quorum sensing system in Pseudomonas aeruginosa PAO1 at 128 ug/ml relative to control; conditions: dose 128.0 µg/ml
T1 sequence (whole entry): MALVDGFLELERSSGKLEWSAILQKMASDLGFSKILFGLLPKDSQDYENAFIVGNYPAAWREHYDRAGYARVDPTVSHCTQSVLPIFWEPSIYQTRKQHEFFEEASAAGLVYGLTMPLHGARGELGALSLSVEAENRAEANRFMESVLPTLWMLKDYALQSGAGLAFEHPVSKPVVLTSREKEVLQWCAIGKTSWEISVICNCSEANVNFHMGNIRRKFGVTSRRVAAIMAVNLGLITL

[2] = Inhibition of quorum sensing system in Pseudomonas aeruginosa PA14 assessed as inhibition of pyocyanin production at 128 ug/ml relative to control; conditions: dose 128.0 µg/ml
[3] = system: Pseudomonas aeruginosa; assay: Antibiofilm activity against Pseudomonas aeruginosa PA14 assessed as inhibition of biofilm formation at 16 ug/ml incubated for 24 hrs by microscopic analysis relative to control; assay type: functional; design: scale not given: the % may be the effect or the level left; conditions: dose 16 µg/ml
[4] = system: Pseudomonas aeruginosa; assay: Antibiofilm activity against Pseudomonas aeruginosa PAO1 assessed as reduction in biofilm formation at 16 ug/ml incubated for 2 to 4 hrs by crystal violet staining based analysis relative to control; assay type: functional; design: scale not given: the % may be the effect or the level left; conditions: dose 16 µg/ml; time 2-4 hrs
[5] = system: Pseudomonas aeruginosa; assay: Antibiofilm activity against Pseudomonas aeruginosa PA21 assessed as reduction in biofilm formation at 1/2 sub-MIC doses incubated for 24 hrs by crystal violet staining based analysis relative to control; assay type: functional; design: scale not given: the % may be the effect or the level left
[6] = system: Pseudomonas aeruginosa; assay: Antibiofilm activity against Pseudomonas aeruginosa PA22 assessed as reduction in biofilm formation at 1/2 sub-MIC doses incubated for 24 hrs by crystal violet staining based analysis relative to control; assay type: functional; design: scale not given: the % may be the effect or the level left
[7] = system: Pseudomonas aeruginosa; assay: Antibiofilm activity against Pseudomonas aeruginosa PA23 assessed as reduction in biofilm formation at 1/2 sub-MIC doses incubated for 24 hrs by crystal violet staining based analysis relative to control; assay type: functional; design: scale not given: the % may be the effect or the level left
[8] = system: Pseudomonas aeruginosa; assay: Antibiofilm activity against Pseudomonas aeruginosa PA24 assessed as reduction in biofilm formation at 1/2 sub-MIC doses incubated for 24 hrs by crystal violet staining based analysis relative to control; assay type: functional; design: scale not given: the % may be the effect or the level left
[9] = system: Pseudomonas aeruginosa; assay: Antibiofilm activity against Pseudomonas aeruginosa PAO1 assessed as reduction in biofilm formation at 1/2 sub-MIC doses incubated for 24 hrs by crystal violet staining based analysis relative to control; assay type: functional; design: scale not given: the % may be the effect or the level left
[10] = system: Pseudomonas aeruginosa; assay: Antibiofilm activity against Pseudomonas aeruginosa PA14 assessed as reduction in biofilm formation at 1/2 sub-MIC doses incubated for 24 hrs by crystal violet staining based analysis relative to control; assay type: functional; design: scale not given: the % may be the effect or the level left
[11] = system: Pseudomonas aeruginosa; assay: Antibiofilm activity against Pseudomonas aeruginosa PA21 assessed as reduction in biofilm formation at 1/4 sub-MIC doses incubated for 24 hrs by crystal violet staining based analysis relative to control; assay type: functional; design: scale not given: the % may be the effect or the level left
[12] = system: Pseudomonas aeruginosa; assay: Antibiofilm activity against Pseudomonas aeruginosa PA22 assessed as reduction in biofilm formation at 1/4 sub-MIC doses incubated for 24 hrs by crystal violet staining based analysis relative to control; assay type: functional; design: scale not given: the % may be the effect or the level left
[13] = system: Pseudomonas aeruginosa; assay: Antibiofilm activity against Pseudomonas aeruginosa PA23 assessed as reduction in biofilm formation at 1/4 sub-MIC doses incubated for 24 hrs by crystal violet staining based analysis relative to control; assay type: functional; design: scale not given: the % may be the effect or the level left
[14] = system: Pseudomonas aeruginosa; assay: Antibiofilm activity against Pseudomonas aeruginosa PA24 assessed as reduction in biofilm formation at 1/4 sub-MIC doses incubated for 24 hrs by crystal violet staining based analysis relative to control; assay type: functional; design: scale not given: the % may be the effect or the level left
[15] = system: Pseudomonas aeruginosa; assay: Antibiofilm activity against Pseudomonas aeruginosa PAO1 assessed as reduction in biofilm formation at 1/4 sub-MIC doses incubated for 24 hrs by crystal violet staining based analysis relative to control; assay type: functional; design: scale not given: the % may be the effect or the level left
[16] = system: Pseudomonas aeruginosa; assay: Antibiofilm activity against Pseudomonas aeruginosa PA14 assessed as reduction in biofilm formation at 1/4 sub-MIC doses incubated for 24 hrs by crystal violet staining based analysis relative to control; assay type: functional; design: scale not given: the % may be the effect or the level left
[17] = system: Pseudomonas aeruginosa; assay: Antivirulence activity against Pseudomonas aeruginosa PA21 assessed as reduction in protease production incubated for 1 hr by absorbance based analysis relative to control; assay type: functional; design: scale not given: the % may be the effect or the level left
[18] = system: Pseudomonas aeruginosa; assay: Antivirulence activity against Pseudomonas aeruginosa PA22 assessed as reduction in protease production incubated for 1 hr by absorbance based analysis relative to control; assay type: functional; design: scale not given: the % may be the effect or the level left
[19] = system: Pseudomonas aeruginosa; assay: Antivirulence activity against Pseudomonas aeruginosa PA23 assessed as reduction in protease production incubated for 1 hr by absorbance based analysis relative to control; assay type: functional; design: scale not given: the % may be the effect or the level left
[20] = system: Pseudomonas aeruginosa; assay: Antivirulence activity against Pseudomonas aeruginosa PA24 assessed as reduction in protease production incubated for 1 hr by absorbance based analysis relative to control; assay type: functional; design: scale not given: the % may be the effect or the level left
[21] = system: Pseudomonas aeruginosa; assay: Antivirulence activity against Pseudomonas aeruginosa PAO1 assessed as reduction in protease production incubated for 1 hr by absorbance based analysis relative to control; assay type: functional; design: scale not given: the % may be the effect or the level left
[22] = system: Pseudomonas aeruginosa; assay: Antivirulence activity against Pseudomonas aeruginosa PA14 assessed as reduction in protease production incubated for 1 hr by absorbance based analysis relative to control; assay type: functional; design: scale not given: the % may be the effect or the level left
[23] = system: Pseudomonas aeruginosa; assay: Antivirulence activity against Pseudomonas aeruginosa PA14 assessed as reduction in pyocyanin production incubated for 1 hr by absorbance based analysis relative to control; assay type: functional; design: scale not given: the % may be the effect or the level left
[24] = system: Pseudomonas aeruginosa; assay: Antivirulence activity against Pseudomonas aeruginosa PAO1 assessed as reduction in pyocyanin production incubated for 1 hr by absorbance based analysis relative to control; assay type: functional; design: scale not given: the % may be the effect or the level left
[25] = system: Pseudomonas aeruginosa; assay: Antivirulence activity against Pseudomonas aeruginosa PA24 assessed as reduction in pyocyanin production incubated for 1 hr by absorbance based analysis relative to control; assay type: functional; design: scale not given: the % may be the effect or the level left
[26] = system: Pseudomonas aeruginosa; assay: Antivirulence activity against Pseudomonas aeruginosa PA23 assessed as reduction in pyocyanin production incubated for 1 hr by absorbance based analysis relative to control; assay type: functional; design: scale not given: the % may be the effect or the level left
[27] = system: Pseudomonas aeruginosa; assay: Antivirulence activity against Pseudomonas aeruginosa PA22 assessed as reduction in pyocyanin production incubated for 1 hr by absorbance based analysis relative to control; assay type: functional; design: scale not given: the % may be the effect or the level left
[28] = system: Pseudomonas aeruginosa; assay: Antivirulence activity against Pseudomonas aeruginosa PA21 assessed as reduction in pyocyanin production incubated for 1 hr by absorbance based analysis relative to control; assay type: functional; design: scale not given: the % may be the effect or the level left
[29] = system: Pseudomonas aeruginosa; assay: Antivirulence activity against Pseudomonas aeruginosa PA21 assessed as reduction in hemolysin activity incubated for 1 hr by absorbance based analysis relative to control; assay type: functional; design: scale not given: the % may be the effect or the level left
[30] = system: Pseudomonas aeruginosa; assay: Antivirulence activity against Pseudomonas aeruginosa PA22 assessed as reduction in hemolysin activity incubated for 1 hr by absorbance based analysis relative to control; assay type: functional; design: scale not given: the % may be the effect or the level left
[31] = system: Pseudomonas aeruginosa; assay: Antivirulence activity against Pseudomonas aeruginosa PA23 assessed as reduction in hemolysin activity incubated for 1 hr by absorbance based analysis relative to control; assay type: functional; design: scale not given: the % may be the effect or the level left
[32] = system: Pseudomonas aeruginosa; assay: Antivirulence activity against Pseudomonas aeruginosa PA24 assessed as reduction in hemolysin activity incubated for 1 hr by absorbance based analysis relative to control; assay type: functional; design: scale not given: the % may be the effect or the level left
[33] = system: Pseudomonas aeruginosa; assay: Antivirulence activity against Pseudomonas aeruginosa PAO1 assessed as reduction in hemolysin activity incubated for 1 hr by absorbance based analysis relative to control; assay type: functional; design: scale not given: the % may be the effect or the level left
[34] = system: Pseudomonas aeruginosa; assay: Antivirulence activity against Pseudomonas aeruginosa PA14 assessed as reduction in hemolysin activity incubated for 1 hr by absorbance based analysis relative to control; assay type: functional; design: scale not given: the % may be the effect or the level left
[35] = system: Pseudomonas aeruginosa; assay: Anti-virulence effect in Pseudomonas aeruginosa PAO1 assessed as inhibition of rhamnolipid production at 250 ug/ml relative to control; assay type: functional; design: scale not given: the % may be the effect or the level left; conditions: dose 250 µg/ml
[36] = system: Pseudomonas aeruginosa; assay: Anti-virulence effect in Pseudomonas aeruginosa PAO1 assessed as inhibition of pyocyanin production at 250 ug/ml relative to control; assay type: functional; design: scale not given: the % may be the effect or the level left; conditions: dose 250 µg/ml
[37] = system: Pseudomonas aeruginosa; assay: Antibiofilm activity against Pseudomonas aeruginosa PAO1 assessed as inhibition of biofilm formation at 250 ug/ml incubated for 24 hrs by crystal violet staining based assay relative to control; assay type: functional; design: scale not given: the % may be the effect or the level left; conditions: dose 250 µg/ml
[38] = system: Pseudomonas aeruginosa; assay: Antibiofilm activity against Pseudomonas aeruginosa PAO1 assessed as inhibition of biofilm formation at 100 uM relative to control; assay type: functional; design: scale not given: the % may be the effect or the level left
[39] = Inhibition of quorum sensing system in Pseudomonas aeruginosa PAO1 expressing lasB-gfp at 10 uM relative to control

- inhibition [1]: 45.1%
- inhibition [2]: 75%
SMILES: O=C(CN1CCOCC1)Nc1cccc([N+](=O)[O-])c1
- Activity [3]: 77%

SMILES: COC(=O)c1cc(O)c(O)c(O)c1 [GALLIC ACID METHYL ESTER]
- Activity [4]: 63%
- Activity [5]: 83.3%
- Activity [6]: 82.2%
- Activity [7]: 83.8%
- Activity [8]: 83.7%
- Activity [9]: 83%
- Activity [10]: 81.6%
- Activity [11]: 77.8%
- Activity [12]: 81.5%
- Activity [13]: 77.9%
- Activity [14]: 78.1%
- Activity [15]: 77.6%
- Activity [16]: 78.6%
- Activity [17]: 53.6%
- Activity [18]: 47.3%
- Activity [19]: 27.6%
- Activity [20]: 42.4%
- Activity [21]: 40.3%
- Activity [22]: 40.1%
- Activity [23]: 66.5%
- Activity [24]: 68.1%
- Activity [25]: 78.7%
- Activity [26]: 79.6%
- Activity [27]: 80.9%
- Activity [28]: 87.3%
- Activity [29]: 63.2%
- Activity [30]: 57.8%
- Activity [31]: 49.8%
- Activity [32]: 55.7%
- Activity [33]: 63.9%
- Activity [34]: 60.5%

SMILES: O=C1CCc2ccccc2O1 [DIHYDROCOUMARIN]
- Activity [4]: 36%
- Activity [35]: 48.94%
- Activity [36]: 87.25%
- Activity [37]: 46.1%

- inhibition [39]: 30%
SMILES: O=Cc1ccc2c(c1)OC(c1ccc(O)c(O)c1)O2 (stereo not given)
- Activity [38]: 44.63%
